Patent US20140243302A1, “BRIDGED BICYCLIC COMPOUNDS FOR THE TREATMENT OF BACTERIAL INFECTIONS” (priority 2011, published 2014)
Values after ≈ are worked out from the molar mass of the structure shown. Counter-ions that a name gives are not always drawn.

Test system: Staphylococcus aureus Smith
Experiment: MIC assay, modified agar dilution (CLSI), S. aureus Smith
Type: cell-based
Settings: Staphylococcus aureus, agar dilution, 35° C., 16-20 hr; lowest concentration that completely inhibited growth; read-out: S_aureus_Smith_WT_MIC
How it was run: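 Agar dilution per CLSI on Mueller Hinton agar (plus 5% horse blood for S. pneumoniae and E. faecium), compound 128 to 0.001 μg/mL in two-fold steps. Spots of ~1×10^4 CFU incubated at 35 °C for 16-20 hr before MIC scoring.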

Structure (SMILES) | MIC
Cc1nccc2c1ccc(=O)n2CCC12CCC(NCc3ccc4c(n3)NC(=O)CO4)(CC1)CO2 [Example 110, 6-((1-(2-(5-Methyl-2-oxo-1,6-naphthyridin-1(2H)-yl)ethyl)-2-oxabicyclo[2.2.2]octan-4-ylamino)methyl)-2H-pyrido[3,2-b][1,4]oxazin-3(4H)-one] | 4 µg/mL (≈ 8.41 µM)
Cc1nnc2c(=O)n(CCC34CCC(NCc5ccc6c(n5)NC(=O)CO6)(CC3)CO4)c3ccccc3n12 [Example 117, 6-((1-(2-(1-Methyl-4-oxo-[1,2,4]triazolo[4,3-a]quinoxalin-5(4H)-yl)ethyl)-2-oxabicyclo[2.2.2]octan-4-ylamino)methyl)-2H-pyrido[3,2-b][1,4]oxazin-3(4H)-one] | 64 µg/mL (≈ 124 µM)
NCC(O)COc1ccc2ncc(F)c(CCC34CCC(NCc5ccc6c(n5)NC(=O)CO6)(CC3)CO4)c2n1 (stereo not shown) [Example 165, 6-{[(1-{2-[6-(3-Amino-2-hydroxypropoxy)-3-fluoro-1,5-naphthyridin-4-yl]ethyl}-2-oxabicyclo[2.2.2]oct-4-yl)amino]methyl}-2H-pyrido[3,2-b][1,4]oxazin-3(4H)-one] | 2 µg/mL (≈ 3.62 µM)
COc1ccc2ncc(F)c(CCC34CCC(NCc5cc6cc(F)ccc6n(C)c5=O)(CC3)CO4)c2n1 [Example 102, 6-Fluoro-3-((1-(2-(3-fluoro-6-methoxy-1,5-naphthyridin-4-yl)ethyl)-2-oxabicyclo[2.2.2]octan-4-ylamino)methyl)-1-methylquinolin-2(1H)-one] | 2 µg/mL (≈ 3.84 µM)
COc1ccc2ncc(F)c(C(CO)CC34CCC(NCc5ccc6c(n5)NC(=O)CO6)(CC3)CO4)c2n1.Cl (stereo not shown) [Example 194, 1-(2-(3-Fluoro-6-methoxy-1,5-naphthyridin-4-yl)-3-hydroxypropyl)-N-((3-oxo-3,4-dihydro-2H-pyrido[3,2-b][1,4]oxazin-6-yl)methyl)-2-oxabicyclo[2.2.2]octan-4-aminium chloride] | 1 µg/mL
COc1ccc2ncc(F)c(CCC34CCC(NCc5ccc6ccc(=O)[nH]c6n5)(CC3)CO4)c2n1 [Example 83, 7-((1-(2-(3-Fluoro-6-methoxy-1,5-naphthyridin-4-yl)ethyl)-2-oxabicyclo[2.2.2]octan-4-ylamino)methyl)-1,8-naphthyridin-2(1H)-one] | 1 µg/mL (≈ 2.04 µM)
COc1ccc2ncc(F)c(CCC34CCC(NCc5ccc6c(n5)NC(=NO)CO6)(CC3)CO4)c2n1 [Example 48, 6-((1-(2-(3-Fluoro-6-methoxy-1,5-naphthyridin-4-yl)ethyl)-2-oxabicyclo[2.2.2]octan-4-ylamino)methyl)-2H-pyrido[3,2-b][1,4]oxazin-3(4H)-one Oxime] | 2 µg/mL (≈ 3.93 µM)
COc1ccc2ncc(F)c(CCC34CCC(NCc5cc6c(F)ccc(F)c6nc5OC)(CC3)CO4)c2n1 [Example 288, N-((5,8-Difluoro-2-methoxyquinolin-3-yl)methyl)-1-(2-(3-fluoro-6-methoxy-1,5-naphthyridin-4-yl)ethyl)-2-oxabicyclo[2.2.2]octan-4-amine] | 0.125 µg/mL (≈ 0.232 µM)
COc1ccc2ncc(F)c(C[C@H](O)C34CCC(NCc5ccc6c(c5)NC(=O)CS6(=O)=O)(CC3)CO4)c2n1 [Example 205, (S)—N-((1,1-Dioxido-3-oxo-3,4-dihydro-2H-benzo[b][1,4]thiazin-6-yl)methyl)-1-(2-(3-fluoro-6-methoxy-1,5-naphthyridin-4-yl)-1-hydroxyethyl)-2-oxabicyclo[2.2.2]octan-4-aminium chloride] | 2 µg/mL
N#Cc1cnc2ccc(=O)n(CC(O)C34CCC(NCc5ccc6c(n5)NC(=O)CO6)(CC3)CO4)c2c1 (single isomer, unassigned; enantiomer a) [Example 160, 5-(2-Hydroxy-2-(4-((3-oxo-3,4-dihydro-2H-pyrido[3,2-b][1,4]oxazin-6-yl)methylamino)-2-oxabicyclo[2.2.2]octan-1-yl)ethyl)-6-oxo-5,6-dihydro-1,5-naphthyridine-3-carbonitrile (Enantiomer A)] | 0.25 µg/mL (≈ 0.497 µM)
COc1ccc2nc(CNC34CCC(CCc5c(Cl)cnc6ccc(OC)nc56)(CC3)CC4)ccc2c1 [Example 57, 4-(2-(3-Chloro-6-methoxy-1,5-naphthyridin-4-yl)ethyl)-N-((6-methoxyquinolin-2-yl)methyl)bicyclo[2.2.2]octan-1-amine] | 4 µg/mL (≈ 7.74 µM)

Second part, the compound after the results:

MIC | Structure (SMILES)
0.031 µg/mL (≈ 0.0603 µM) | COc1ccc2ncc(F)c(CCC34CCC(NCc5cc(Cl)c6c(c5)OCCO6)(CC3)CO4)c2n1 [Example 67, N-((8-Chloro-2,3-dihydrobenzo[b][1,4]dioxin-6-yl)methyl)-1-(2-(3-fluoro-6-methoxy-1,5-naphthyridin-4-yl)ethyl)-2-oxabicyclo[2.2.2]octan-4-amine]
0.031 µg/mL (≈ 0.0638 µM) | N#Cc1ccc2ccc(=O)n(CCC34CCC(NCc5ccc6c(n5)NC(=O)CO6)(CC3)CO4)c2c1 [Example 180, 2-Oxo-1-[2-(4-{[(3-oxo-3,4-dihydro-2H-pyrido[3,2-b][1,4]oxazin-6-yl)methyl]amino}-2-oxabicyclo[2.2.2]oct-1-yl)ethyl]-1,2-dihydroquinoline-7-carbonitrile]
0.125 µg/mL (≈ 0.254 µM) | COc1ccc2ncc(F)c(CCC34CCC(NCc5ccc6c(c5)OCCN6C)(CC3)CO4)c2n1 [Example 66, 1-(2-(3-Fluoro-6-methoxy-1,5-naphthyridin-4-yl)ethyl)-N-((4-methyl-3,4-dihydro-2H-benzo[b][1,4]oxazin-7-yl)methyl)-2-oxabicyclo[2.2.2]octan-4-amine]
0.063 µg/mL (≈ 0.124 µM) | COc1ccc2ncc(F)c(CC(O)C34CCC(NCc5cc6c(cn5)OCC(=O)N6)(CC3)CO4)c2n1 (stereo not shown) [Example 149, 7-((1-(2-(3-Fluoro-6-methoxy-1,5-naphthyridin-4-yl)-1-hydroxyethyl)-2-oxabicyclo[2.2.2]octan-4-ylamino)methyl)-1H-pyrido[3,4-b][1,4]oxazin-2(3H)-one]
0.031 µg/mL | COc1ccc2nccc(CCC34CCC(NCc5ccc6c(n5)NC(=O)CO6)(CC3)CC4)c2n1.Cl [Example 1, 6-((4-(2-(6-Methoxy-1,5-naphthyridin-4-yl)ethyl)bicyclo[2.2.2]octan-1-ylamino)methyl)-2H-pyrido[3,2-b][1,4]oxazin-3(4H)-one Hydrochloride]
0.063 µg/mL (≈ 0.121 µM) | COc1cc(C)c2ncc(F)c(CC(O)C34CCC(NCc5ccc6c(n5)NC(=O)CO6)(CC3)CO4)c2c1 (stereo not shown) [Example 140, 6-[({1-[2-(3-Fluoro-6-methoxy-8-methylquinolin-4-yl)-1-hydroxyethyl]-2-oxabicyclo[2.2.2]oct-4-yl}amino)methyl]-2H-pyrido[3,2-b][1,4]oxazin-3(4H)-one]
0.063 µg/mL (≈ 0.129 µM) | N#Cc1ccc2ncc(F)c(CCC34CCC(NCc5ccc6c(n5)NC(=O)CO6)(CC3)CO4)c2n1 [Example 31, 7-Fluoro-8-(2-(4-((3-oxo-3,4-dihydro-2H-pyrido[3,2-b][1,4]oxazin-6-yl)methylamino)-2-oxabicyclo[2.2.2]octan-1-yl)ethyl)-1,5-naphthyridine-2-carbonitrile]
0.063 µg/mL (≈ 0.111 µM) | O=C1COc2ccc(CNC34CCC(CCc5c(F)cnc6ccc(OCCCCCO)nc56)(CC3)OC4)nc2N1 [Example 37, 6-((1-(2-(3-Fluoro-6-(5-hydroxypentyloxy)-1,5-naphthyridin-4-yl)ethyl)-2-oxabicyclo[2.2.2]octan-4-ylamino)methyl)-2H-pyrido[3,2-b][1,4]oxazin-3(4H)-one]
0.016 µg/mL (≈ 0.0326 µM) | COc1cnc2ccc(=O)n(CCC34CCC(NCc5ccc6c(n5)NC(=O)CO6)(CC3)CO4)c2c1 [Example 120, 6-(((1-(2-(7-Methoxy-2-oxo-1,5-naphthyridin-1(2H)-yl)ethyl)-2-oxabicyclo[2.2.2]octan-4-yl)amino)methyl)-2H-pyrido[3,2-b][1,4]oxazin-3(4H)-one]
0.063 µg/mL | COc1ccc2ncc(F)c(CCC34CCC(NCc5cc6c(cc5F)OCO6)(CC3)CO4)c2n1.Cl [Example 87, 1-(2-(3-Fluoro-6-methoxy-1,5-naphthyridin-4-yl)ethyl)-N-((6-fluorobenzo[d][1,3]dioxol-5-yl)methyl)-2-oxabicyclo[2.2.2]octan-4-amine Hydrochloride]

Same assay, conditions: agar dilution, 35° C., 16-20 hr; lowest concentration that completely inhibited growth

Structure (SMILES) | S_aureus_Smith_WT_MIC
COc1cnc2ccc(=O)n(CC(O)C34CCC(NCc5ccc6c(n5)NC(=O)CO6)(CC3)CO4)c2c1 (single isomer, unassigned) [Example 54a, 6-(((1-(1-Hydroxy-2-(7-methoxy-2-oxo-1,5-naphthyridin-1(2H)-yl)ethyl)-2-oxabicyclo[2.2.2]octan-4-yl)amino)methyl)-2H-pyrido[3,2-b][1,4]oxazin-3(4H)-one] | 0.250 µg/mL
COc1ccc2ncc(Cl)c(CC(O)C34CCC(NCc5ccc6c(n5)NC(=O)CO6)(CC3)CC4)c2n1.Cl (single isomer, unassigned) [Example 14b, 6-((4-(2-(3-Chloro-6-methoxy-1,5-naphthyridin-4-yl)-1-hydroxyethyl)bicyclo[2.2.2]octan-1-ylamino)methyl)-2H-pyrido[3,2-b][1,4]oxazin-3(4H)-one Hydrochloride] | 0.0310 µg/mL

Same assay, conditions: agar dilution, 35° C., 16-20 hr; lowest concentration that completely inhibited growth; Dihydrochloride

Structure (SMILES) | S_aureus_Smith_WT_MIC
COc1ccc2ncc(F)c(CC(N)C34CCC(NCc5ccc6c(n5)NC(=O)CO6)(CC3)CO4)c2n1 (single isomer, unassigned) [Example 21b, 6-((1-(1-Amino-2-(3-fluoro-6-methoxy-1,5-naphthyridin-4-yl)ethyl)-2-oxabicyclo[2.2.2]octan-4-ylamino)methyl)-2H-pyrido[3,2-b][1,4]oxazin-3(4H)-one Dihydrochloride] | 0.125 µg/mL

Same assay, conditions: agar dilution, 35° C., 16-20 hr; lowest concentration that completely inhibited growth; Hydrochloride

Structure (SMILES) | S_aureus_Smith_WT_MIC
COc1ccc2ncc(F)c(C3OC(=O)OC3C34CCC(NCc5ccc6c(n5)NC(=O)CO6)(CC3)CO4)c2n1.Cl (single isomer, unassigned) [Example 27b, 6-((1-(5-(3-fluoro-6-methoxy-1,5-naphthyridin-4-yl)-2-oxo-1,3-dioxolan-4-yl)-2-oxabicyclo[2.2.2]octan-4-ylamino)methyl)-2H-pyrido[3,2-b][1,4]oxazin-3(4H)-one hydrochloride] | 2.00 µg/mL
